Experimental data reported in patent US12383598B2, “Method for treating gingivitis and gingival atrophy and repairing oral mucosa” (ADVANCED HEALTHTECH BIOPEPTIDE LABORATORIES CO., LTD, priority 2021, dated 2025).
Values belong to the molecule of their own block, whether it stands above or below them. Ends that are not written are not given here. Peptide text beside a SMILES is read from it.

Assays:
Type in all cases: cell-based
[1] = target: TNFα (Homo sapiens, UniProt P01375); experiment: TNFα inhibition in L929 cells; settings: for O.D. (TNFα inhibition): O.D. at 490/630 nm
Experimental: (§1) In vitro L929 cell proliferation/cytotoxicity assay was measured in a microtiter plate. L929 cells were cultured in the Eagle's minimum essential medium (EMEM) containing 10% bovine serum, 1% P/S and 1% non-essential amino acids. Converged L929 cells were washed by 2 ml of a phosphate buffer solution (PBS) and then treated with trypsin, followed by resuspension in the EMEM. 200 μl of the cell suspension were taken by suction for cell density counting, and the remaining cell suspension were centrifuged at 1500 rpm for 5 minutes. The supernatant was removed, and the EMEM was added for diluting the cells to form a final concentration of 1.5×10^5 cells/ml. 100 μl of the resultant cell suspension were added to each well of a 96-well flat-bottom microtiter plate, and then incubated at 37° C. and 5% CO2 for 24 hours.
GEKG and KTTKS were re-solved with 1× PBS to form solutions having a concentration equivalent to 1 mg GEKG/ml and 1 mg KTTKS/ml, respectively, followed by further dilution with 1× PBS to form solutions having a concentration of 500, 125, 31.25 […], respectively, and the resultant diluted solutions were mixed with a TNFα solution with an equal volume, and incubated for 1 hour. 50 μl of each of the 4 mixtures were added to the above 96-well flat-bottom microtiter plate containing L929 cells incubated for 24 hours, and actinomycin D (ActD) with a final concentration of 2 μg/ml and TNFα with a final concentration of 0.1 ng/ml were added to each well. Test wells containing 2 μg/ml ActD only and 0.1 ng/ml TNFα only were used as positive controls and blank controls, respectively. The resultant 96-well flat-bottom microtiter plate was further incubated at 37° C. and 5% CO2 for 24 hours. O.D. values at 490/630 nm were measured by a microplate reader. TNFα inhibition was calculated by the following formula: […]

[2] = Cytotoxicity to L929 cells (XTT); settings: mouse, L929 cells
Experimental: as §1
(§2) GEKG and KTTKS were re-solved with 1× PBS to form solutions having a concentration equivalent to 1 mg GEKG/ml and 1 mg KTTKS/ml, respectively, followed by further […], respectively. 50 μl of each of the 4 diluted solutions were added to the above 96-well flat-bottom microtiter plate containing L929 cells incubated for 24 hours, and ActD with a final concentration of 2 μg/ml was added to each well. The resultant 96-well flat-bottom microtiter plate was further incubated at 37° C. and 5% CO2 for 24 hours, followed by addition of 50 μl of 2,3-bis(2-methoxy-4-nitro-5-sulfophenyl)-5-[(phenylamino)carbonyl]-2H-tetrazolium hydroxide (XTT) to each well and further incubation for 1 hour. O.D. values at 490/630 nm were measured by a microplate reader. Cytotoxicity was calculated by the following formula: […]

[3] = tested on: L929 cells; experiment: Cytotoxicity to L929 cells (XTT); settings: for O.D. (cytotoxicity): O.D. at 490/630 nm; for Cytotoxicity to L929 cells (in words): series of dilutions
Experimental: as §1, §2

[4] = tested on: macrophages; experiment: NO production from macrophages induced by LPS; settings: in vitro; FIGS. 3 and 4
Experimental: In vitro anti-inflammation of GEKG and KTTKS was evaluated by using the well-known inflammation model of NO production from macrophages induced by lipopolysaccharide (LPS).

[5] = tested on: macrophages; experiment: H2O2 production from macrophages induced by LPS; settings: in vitro; FIG. 5
Experimental: An ability of GEKG and KTTKS against inflammatory oxidation pressure in vitro was evaluated by using the well-known inflammation model of H2O2 production from macrophages induced by lipopolysaccharide (LPS).

[6] = tested on: primary oral epithelial cells; experiment: Proliferation of primary oral epithelial cells; settings: different concentrations, in vitro; FIG. 6
[7] = tested on: primary oral epithelial cells; experiment: Death of primary oral epithelial cells induced by free radical H2O2; settings: different concentrations, in vitro; FIG. 7
[8] = tested on: human gingival fibroblasts (HGF); experiment: Proliferation of human gingival fibroblasts (HGF); settings: different concentrations, in vitro; FIG. 8A
[9] = tested on: Type I collagen; experiment: Gene expression of Type I collagen in human gingival fibroblasts (RT-PCR); settings: concentration of 0 to 40 μl, FIG. 8B
Experimental: Production of Type I collagen in human gingival fibroblasts was observed. There is a dose-dependent relationship between expression of Type I collagen and GEKG and KTTKS in a concentration of 0 to 40 μl.

[10] = tested on: TGF-β1; experiment: Gene expression of TGF-β1 in human gingival fibroblasts (RT-PCR); settings: human HGF, FIG. 9A, 9B
[11] = tested on: human HGF; experiment: Synthesis of extracellular matrix (ECM) from human HGF; settings: 50 μM KTTKS or GEKG; TGF-β1 0, 0.5 and 5 ng/ml; FIG. 10
Experimental: It is determined whether or not there exists synergism between GEKG or KTTKS and TGF-β1 in the synthesis of ECM when human HGF was treated with TGF-β1 (0.5 or 5 ng/ml) alone or in combination with KTTKS or GEKG (50 µM).
Human HGF were pre-cultured in the Dulbecco's Modified Eagle Medium (DMEM) containing 0.2% bovine serum for 24 hours, and then treated with 3 different concentrations (0, 0.5 and 5 ng/ml) of TGF-β1 for 24 hours, followed by further culturing for 24 hours in the absence of KTTKS and GEKG (solid line) or in the presence of 50 μM KTTKS or GEKG (dotted line).

Chain of TNFα (P01375 77-233 limits assumed, species assumed): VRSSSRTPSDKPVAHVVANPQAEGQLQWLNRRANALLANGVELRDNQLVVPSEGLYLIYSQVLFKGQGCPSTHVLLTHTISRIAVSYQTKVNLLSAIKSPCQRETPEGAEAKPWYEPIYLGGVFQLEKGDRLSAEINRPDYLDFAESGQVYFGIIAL

- O.D. (TNFα inhibition) ([1]; GEKG dilution 1/16): 1.60
- O.D. (TNFα inhibition) ([1]; GEKG dilution 1/64): 0.80
- O.D. (TNFα inhibition) ([1]; GEKG dilution 1/256): 0.61
- O.D. (TNFα inhibition) ([1]; GEKG dilution 1/512): 0.56
- O.D. (TNFα inhibition) ([1]; GEKG dilution 1/1024): 0.51
- O.D. (TNFα inhibition) ([1]; GEKG dilution 1/2048): 0.48
- O.D. (TNFα inhibition) ([1]; GEKG dilution 1/4096): 0.51
- O.D. (TNFα inhibition) ([1]; GEKG dilution ¼): 2.87
Molecule: NCCCC[C@H](NC(=O)[C@H](CCC(=O)O)NC(=O)CN)C(=O)NCC(=O)O [GEKG] (H-GEKG-OH)
- cytotoxicity at 24 h ([2]; GEKG dilution 1/16): -12.3%
- cytotoxicity at 24 h ([2]; GEKG dilution 1/64): -2.32%
- cytotoxicity at 24 h ([2]; GEKG dilution 1/256): -4.61%
- cytotoxicity at 24 h ([2]; GEKG dilution 1/512): -1.71%
- cytotoxicity at 24 h ([2]; GEKG dilution 1/1024): 0.11%
- cytotoxicity at 24 h ([2]; GEKG dilution 1/2048): 1.9%
- cytotoxicity at 24 h ([2]; GEKG dilution 1/4096): -4.72%
- cytotoxicity at 24 h ([2]; GEKG dilution ¼): -58.7%
- O.D. (cytotoxicity) ([3]; GEKG dilution 1/16): 2.01
- O.D. (cytotoxicity) ([3]; GEKG dilution 1/64): 1.83
- O.D. (cytotoxicity) ([3]; GEKG dilution 1/256): 1.87
- O.D. (cytotoxicity) ([3]; GEKG dilution 1/512): 1.82
- O.D. (cytotoxicity) ([3]; GEKG dilution 1/1024): 1.79
- O.D. (cytotoxicity) ([3]; GEKG dilution 1/2048): 1.75
- O.D. (cytotoxicity) ([3]; GEKG dilution 1/4096): 1.87
- O.D. (cytotoxicity) ([3]; GEKG dilution ¼): 2.84
- Cytotoxicity to L929 cells (in words) [3]: does not induce cytotoxicity
- Inhibition of NO production from macrophages induced by LPS [4]: inhibit NO production from macrophages induced by LPS in a dose-dependent manner
- Inhibition of H2O2 production from macrophages induced by LPS [5]: inhibit H2O2 production from macrophages induced by LPS in a dose-dependent manner
- Promotion of proliferation of primary oral epithelial cells [6]: promote proliferation of primary oral epithelial cells in vitro in a dose-dependent manner
- Reduction of death of primary oral epithelial cells induced by free radical H2O2 [7]: reduce death of primary oral epithelial cells induced by free radical H2O2 in vitro in a dose-dependent manner
- Effect on proliferation of HGF [8]: neither GEKG nor KTTKS in different concentrations exhibits a significant effect in promoting proliferation of HGF
- Gene expression of Type I collagen [9]: stimulate gene expression of Type I collagen in transcription
- Gene expression of TGF-β1 [10]: stimulate gene expression of TGF-β1 in transcription
- Synthesis of ECM (collagen and fibrin) from human HGF [11]: exhibit a more significant ability in inducing human HGF for synthesizing ECM than TGF-β1

- O.D. (TNFα inhibition) ([1]; KTTKS 4.156 μg/ml): 0.479
- O.D. (TNFα inhibition) ([1]; KTTKS 16.625 μg/ml): 0.597
- O.D. (TNFα inhibition) ([1]; KTTKS 66.5 μg/ml): 1.042
- O.D. (TNFα inhibition) ([1]; KTTKS 266 μg/ml): 2.363
- inhibition at 4.156 µg/mL ([1]; L929, KTTKS 4.156 μg/ml): 10.5%
- inhibition at 16.625 µg/mL ([1]; L929, KTTKS 16.625 μg/ml): 21.1%
- inhibition at 66.5 µg/mL ([1]; L929, KTTKS 66.5 μg/ml): 60.9%
- inhibition at 266 µg/mL ([1]; L929, KTTKS 266 μg/ml): 179%
Molecule: KTTKS [KTTKS]
- cytotoxicity at 24 h, 4.156 μg/ml ([2]; KTTKS 4.156 μg/ml): -8.3%
- cytotoxicity at 24 h, 16.625 μg/ml ([2]; KTTKS 16.625 μg/ml): -3.9%
- cytotoxicity at 24 h, 66.5 μg/ml ([2]; KTTKS 66.5 μg/ml): -20.8%
- cytotoxicity at 24 h, 266 μg/ml ([2]; KTTKS 266 μg/ml): -77.1%
- O.D. (cytotoxicity) ([3]; KTTKS 4.156 μg/ml): 1.600
- O.D. (cytotoxicity) ([3]; KTTKS 16.625 μg/ml): 1.535
- O.D. (cytotoxicity) ([3]; KTTKS 66.5 μg/ml): 1.784
- O.D. (cytotoxicity) ([3]; KTTKS 266 μg/ml): 2.616
- Cytotoxicity to L929 cells (in words) [3]: does not induce cytotoxicity
- Inhibition of NO production from macrophages induced by LPS [4]: inhibit NO production from macrophages induced by LPS in a dose-dependent manner
- Inhibition of H2O2 production from macrophages induced by LPS [5]: inhibit H2O2 production from macrophages induced by LPS in a dose-dependent manner
- Promotion of proliferation of primary oral epithelial cells [6]: promote proliferation of primary oral epithelial cells in vitro in a dose-dependent manner
- Reduction of death of primary oral epithelial cells induced by free radical H2O2 [7]: reduce death of primary oral epithelial cells induced by free radical H2O2 in vitro in a dose-dependent manner
- Effect on proliferation of HGF [8]: neither GEKG nor KTTKS in different concentrations exhibits a significant effect in promoting proliferation of HGF
- Gene expression of Type I collagen [9]: stimulate gene expression of Type I collagen in transcription
- Gene expression of TGF-β1 [10]: stimulate gene expression of TGF-β1 in transcription
- Synthesis of ECM (collagen and fibrin) from human HGF [11]: exhibit a more significant ability in inducing human HGF for synthesizing ECM than TGF-β1

Molecule: TGF-β1: tumor growth factor-β1 used at 0.5 or 5 ng/ml to treat human HGF [reference compound]
- Synthesis of ECM (collagen and fibrin) from human HGF [11]: up-regulate biosynthesis of ECM
